Source: patent US20250325586A1, “TREATING CANCER” (priority 2022, published 2025)
Entries after “also recorded” stand apart in the source; their conditions may differ.

How the values were obtained:
[1] = test system: TSHR expression in ATC PDX tumors (THJ-560 / MC-Th-560); experiment: IHC of TSHR and pERK in ATC PDX tumors treated with MEK/BRAF inhibitors; format: in vivo, NSG mice
Procedure: Immunostaining was performed on paraffin-embedded tissue. Thyroid tissue microarray (TMA) was made from archival samples. Paraffin blocks were cut into 5 μm thick sections. Slides were deparaffinized, and were rehydrated with decreasing concentrations of ethanol and finally in water. Antigen retrieval was performed using Antigen Retrieval Solution (pH 6 or pH 9) (Dako, Glostrup, Denmark), for at least 15 minutes in an autoclave, and cooling for 30 minutes at room temperature. Washing slides with 3% hydrogen peroxide (Fisher Scientific, Waltham, MA, USA) for 10 minutes blocked the activity of endogenous peroxidases. Primary anti-human antibodies were used for 60 minutes at room temperature and at the following dilutions: TSHR antibody at 1:500 (abcam, ab218108, Cambridge, UK) and NIS antibody at 1:200 (ProteinTech, 24324-1-AP, Rosemont, IL, USA), CD14 antibody at 1:100 (abcam, ab183322, Cambridge, UK), CD80 at 1:1000 (abcam, ab134120, Cambridge, UK), CD206 at 1:5000 (abcam, ab64693, Cambridge, UK), Ki67 at 1:1000 (abcam, ab15580, Cambridge, UK), cleaved caspase 3 (Asp175) CC3 at 1:100 (Cell Signaling 9661, Danvers, MA, USA), and CD31 at (Santa Cruz Biotechnology, sc-1506, Dallas, TX, USA).
In this model, 5 mm^3 MC-Th-560 ATC PDX tissue was surgically implanted into the right lateral flank of NSG mice and grown to ˜100 mm^3. Mice then received daily treatment with either vehicle control or trametinib (MEK inhibitor) at the indicated doses.
The following was performed to assess the kinetics of TSHR expression after MEK/BRAF inhibition. Mice were implanted with 5 mm^3 Th-560 ATC PDX tumors. When tumors reached ˜100 mm^3, mice were treated daily with either vehicle control or with 1.5 mg/kg R05126766 plus 1 mg/kg dabrafenib.
Immunostaining was performed on paraffin-embedded tissue. Thyroid tissue microarray (TMA) was made from archival samples. Paraffin blocks were cut into 5 μm thick sections. […] The primary antibody was detected using the Envision Labeled Kit (Dako, Glostrup, Denmark) according to the manufacturer's protocol. […]

[2] = test system: ATC THJ-560 PDX tumors; experiment: Tumor volume of ATC PDX tumors treated with MEK/BRAF inhibitors; format: in vivo, NSG mice
Procedure: FIGS. 9A-9J. Treatment of thyroid tumors with MAPK inhibitors results in upregulation of TSHR. […] NSG mice treated with different daily doses of trametinib for 8 days and tumor volume regression was measured. FIG. 9B) TSHR expression was restored with higher dose of trametinib, whereas pERK expression was reduced. Right. […] Left. Association between H-score of TSHR and pERK in correlation with trametinib dose-escalation. […] Assessment of tumor volume on NSG mice treated with different doses of R05126766. […] Right. ICH tumor sections showing TSRH and pERK expression. Left. H-score of TSRH and pERK in association with increasing doses of R05126766. FIG. 9E) Experimental schema of an ATC PDX model treated with MAPK inhibitors (MEKi and BRAFi). […] Treatment was begun when tumors were ˜75-100 mm^3. […] Upper panel. H-score of TSHR in ATC-derived treated tumors (One-way ANOVA; **p<0.01; n=4 mice; error bars, SEM). Lower panel. TSHR expression assessment via IHC. […] Tumor volume assessment over a period of 7 days of MAPK inhibitors dosage. FIG. 9H) Experimental schema of an ATC PDX model treated with MEK inhibitors. NSG mice were implanted with ATC PDX tumors and treatment with MEK inhibitors (for 14 days) R05126766 and trametinib started (daily dosage) when tumors reached ˜75-100 mm^3. […] Upper panel. […]

[3] = test system: luciferase/TSHR+/+ K562 or luciferase/TSHR+/+ FTC133 cells; details: presence or absence of MEK inhibitor (10 nM trametinib, FTC133, 48 hours in FIG. 10A)
Procedure: Cytotoxicity assays: Cytotoxicity assays were performed as described elsewhere (see, e.g., Sterner, R. M. et al., Blood 133, 697-709 (2019)). In summation, luciferase/TSHR+/+K562 or luciferase/TSHR+/+FTC133 cells was used as a target cell. TSHR-CAR T cells or batch-matched control donor untransduced (non-transduced) T cells (UTD) were co-cultured with target cells at serial effector: target (E:T) ratios in T cell media. Cytotoxic efficiency was calculated by bioluminescence imaging on the Xenogen IVIS-200 Spectrum (PerkinElmer, Hopkinton, MA, USA) or Promega GlowMax Explorer (Promega Corporation, Fitchburg, WI, USA) at 24 hours, 48 hours, and 72 hours, as indicated in the specific experiment.
Cytotoxicity assays were performed as described elsewhere (Sterner, R. M. et al., Blood 133, 697-709 (2019)). Luciferase*TSHR*K562 or FTC133 cells were used as target cells. UTD or TSHR-CART cells were co-cultured with target cells at various effector: target (E:T) ratios in T cell medium. Cytotoxic efficiency was calculated by bioluminescence imaging on the Promega GlowMax Explorer (Promega Corporation, Fitchburg, WI, USA) at indicated time points.

[4] = one week of daily treatment at escalating doses, MC-Th-560 ATC PDX, vs placebo

With `CNS(=O)(=O)Nc1nccc(Cc2c(C)c3ccc(Oc4ncccn4)cc3oc2=O)c1F` [Clone R05126766] the “TSHR protein expression by IHC” value ([1]; 14 days daily oral, 1.5 mg/kg R05126766 or 1 mg/kg trametinib, vs vehicle/placebo) was “elevated significantly; also recorded: increased TSHR expression”, the “TSHR expression by IHC, dose escalation” value [1, 4] was “increase in TSHR expression; also recorded: increased expression of TSRH” and the “pERK expression by IHC, dose escalation” value [1, 4] was “reduction of pERK; also recorded: lower expression of pERK”. The “anti-tumor activity (tumor volume by caliper)” value ([2]; 14 days daily, placebo, R05126766 or trametinib) was “better anti-tumor activity in comparison to trametinib” and the “tumor volume, dose escalation” value ([2]; different daily doses (trametinib: 8 days)) was “dose-depended tumor reduction; also recorded: proportional to thyroid tumor volume reduction”.
For `CC(=O)Nc1cccc(-n2c(=O)n(C3CC3)c(=O)c3c(Nc4ccc(I)cc4F)n(C)c(=O)c(C)c32)c1` [trametinib], the “effect of MEK inhibitor on TSHR CART cell cytotoxicity” value [3] was “did not impair”.
